Molecules are shown by their SMILES. “Also recorded” adds a separate entry of the source. Where only a bound is given, the exact number is not on record here.

A short description of series [1]: Transformation of dhBBR in pooled human intestinal microsomes (HIMs). The series is classed as in vitro ADME. As to the method:
The mixture was incubated at 37 °C with exposure to air for 2, 5 and 10 min and was terminated by the addition of 200 μl of ice-cold acetonitrile. Then, 20 μl of the internal standard was added to the mixture, and the mixture was centrifuged at 14,000 g for 5 min. Fifty microliters of the supernatant was injected into the HPLC instrument for analysis. The control samples were incubated under the same conditions but without HIMs.

Series [2] concerns rat small intestinal bacteria (RSIB). Briefly: Conversion of BBR into dhBBR by rat small intestinal bacteria in vitro. The series is classed as in vitro ADME. The conditions noted are these: BBR incubated with rat small intestine bacteria. As to the method: The small intestine contents from ten sacrificed SD rats were obtained and mixed with anaerobic medium to prepare the cultures. BBR was added into the incubation at final concentrations of 100, 50, and 10 μg/ml, and the reaction was continued for 6, 12 or 24 h. Levels of BBR, dhBBR and other BBR metabolites were determinedusing the LC-MS/MS 8040 and GC-MS instruments according to the above-mentioned method.

The target in series [3] is T1, monoamine oxidase-B (MAO-B) (Homo sapiens, UniProt P27338).
T1 sequence (P27338 1-520): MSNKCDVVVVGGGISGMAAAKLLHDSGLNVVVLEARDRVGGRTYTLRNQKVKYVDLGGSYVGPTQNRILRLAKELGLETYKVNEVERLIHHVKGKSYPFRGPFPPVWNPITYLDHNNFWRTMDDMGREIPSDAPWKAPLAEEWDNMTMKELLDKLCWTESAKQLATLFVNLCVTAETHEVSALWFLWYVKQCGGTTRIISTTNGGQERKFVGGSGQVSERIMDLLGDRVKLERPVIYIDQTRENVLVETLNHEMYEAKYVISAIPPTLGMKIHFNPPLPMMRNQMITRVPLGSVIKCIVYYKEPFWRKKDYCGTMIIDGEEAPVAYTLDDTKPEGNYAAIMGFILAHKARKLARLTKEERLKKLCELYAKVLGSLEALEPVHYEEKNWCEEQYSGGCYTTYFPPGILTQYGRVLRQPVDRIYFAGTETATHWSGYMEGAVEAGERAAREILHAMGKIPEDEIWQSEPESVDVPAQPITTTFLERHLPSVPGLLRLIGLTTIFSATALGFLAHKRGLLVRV
Particulars: cell-free system, dhBBR 100 μM, 30 min.
Method: The reaction system consisted of dhBBR (100 μM), MAO-B (0.2 mg/ml) and phosphate-buffered saline (PBS, pH = 7.4) in a final volume of 200 μl. The MAO-B was pre-incubated via centrifugation at 850 rpm at 37 °C for 5 min, and this step was followed by the addition of dhBBR. The reaction was terminated after 30 min by adding an equal volume of ice-cold acetonitrile and centrifuging at 14,000 g for 5 min. Ten microliters of the supernatant was injected into the HPLC instrument for analysis.

A further series has as its system 17 intestinal bacteria. Briefly: Anti-bacterial test (MIC, broth microdilution). The series is classed as cell-based. Particulars: 17 intestinal bacteria strains, 24 h. As to the method: Seventeen bacterial strains (see above) were used in the susceptibility test for BBR and dhBBR. The bacterial strains, which belong to different species of bacteria, were collected and identified as described above. The minimum inhibitory concentrations (MICs) of BBR and dhBBR after 24 h were determined through the broth microdilution method according to the CLSI guidelines. BBR and dhBBR were tested at a concentration range of 8 to 512 μg/ml. The MIC was defined as the lowest concentration of an agent that prevents turbidity. The experiment was repeated three times. All of the bacterial strains tested in this study (S. aureus ATCC 29213, E. faecalis ATCC 29212, E. coli ATCC 25922, S. aureus 08-43, S. epidermidis 12-12, E. faecium 13-01, E. faecalis 13-01, E. coli 06-05, K. pneumoniae 13-14, Ps. aeruginosa 13-10, A. baumannii 13-02, E. cloacae 13-12, and P. mirabilis 13-01) were facultative anaerobes, of which S. aureus ATCC 29213, E. faecalis ATCC 29212 and E. coli ATCC 25922 were standard strains from ATCC (USA) and served as quality controls. L. casei ATCC 334, L. acidophilus ATCC 4356, B. longum ATCC 15707, and B. breve ATCC 15700 were also tested in this anti-bacterial experiment. Ampicillin was used as the positive control.
(In general: Broth dilution looks for growth in wells or tubes with falling amounts of substance.)

A short description of series [4]: Distribution of dhBBR in organs of SD rats orally treated with BBR. The conditions noted are these: 24 h after oral BBR 200 mg/kg. The series is classed as in vivo. As to the method: Three segments of small intestine (duodenum, jejunum and ileum) were collected 0, 6, 12, 24, 36, and 48 h after the oral administration of BBR in SD rats. The small intestine tissues were washed thoroughly with saline and dried. After being weighed, the samples were homogenized with mixed solution (ethanol: water, 1:1) at a ratio of 1:2 [w(g)/v(ml)]. The samples were centrifuged at 7,500 g for 10 min, and the supernatant was collected and evaporated to dryness in a water bath at 40 °C using a rotary evaporator. The residues of the tissue extraction were dissolved in methanol (250 μl) and vortex-mixed for 5 min. The tissue solution was then centrifuged (at 14,000 g for 5 min), and the supernatant was passed through a 0.22-μm filter. An aliquot of 1 μl of the supernatant was injected into the GC-MS instrument, and a 10-μl aliquot was used for LC-MS/MS analysis. The level of dhBBR was calculated based on the standard curve, and BBR and other metabolites was quantified using the method described above.

A further series concerns LDLR. Briefly: Drug effect on hepatic LDLR gene expression in HepG2 cells. The series is classed as cell-based, human. The conditions noted are these: 12 h. As to the method:
The HepG2 human hepatoma cell line was obtained from the American Tissue Culture Collection (ATCC, USA) and grown in Eagle’s Minimum Essential Medium (GIBCO) supplemented with 10% fetal bovine serum (GIBCO) at 37 °C. For the drug efficacy test, HepG2 cells were cultured for 24 h and then treated with BBR or dhBBR for 12 h. The compounds were freshly prepared in medium prior to use.
The total cellular RNAs were isolated with the SV Total RNA Isolation System (Promega, Madison, WI, USA) following the vendor’s instructions. The total RNAs were reversely transcribed into cDNAs, and quantitative real-time PCR was performed using a 2-Step RT-qPCR System (Promega, Madison, WI, USA), with GAPDH as an internal control. The normalized LDLR mRNA expression levels were plotted as fold levels compared with the untreated control. The following primers were used: LDLR forward, […]; LDLR reverse, […]; GAPDH forward, […]; and GAPDH reverse, […].

A short description of series [5]: dhBBR-to-BBR reversion in rat small intestine homogenate. The series is classed as in vitro ADME. Particulars: 10-min incubation. The protocol: The rat duodenum, jejunum and ileum were collected separately, washed thoroughly with saline and dried. After being weighed, the tissues were homogenized with saline at a ratio of 1: 2 [w (g) /v (ml)]. DhBBR was dissolved in a mixture of methanol and DMSO at a ratio of 1:1 with a final concentration of 5 mg/ml. Ten microliters of dhBBR (5 mg/ml) was mixed with 1 ml of the homogenates. The samples were then centrifuged at 14,000 g for 5 min, and the supernatants were collected and mixed with an equal volume of ice-cold acetonitrile to terminate the reaction. The samples were centrifuged at 14,000 g for 5 min, and the supernatant was used for the HPLC analysis.

For the molecule `COc1ccc2c(c1OC)CN1CCc3cc4c(cc3C1=C2)OCO4` [dhBBR, dihydroberberine], the dhBBR-to-BBR reversion result in series [1] is given as “very rapidly”; in series [5] (duodenum and jejunum homogenate), “almost completely”. Moreover, in series [2], the “incubation time until dhBBR became detectable” value is listed as at most 6 h. Besides, the “reversion from dhBBR to BBR attributable to MAO-B” value in series [3] is “approximately 10%”. In addition, the “antibacterial effect compared with BBR” value in the series with 17 intestinal bacteria is recorded as “even weaker than that of BBR in 5 of the 17 intestinal bacteria strains”. Besides, in series [4], the “organs in which dhBBR was detected” value was “detected in intestinal tissue only”. Also, the “up-regulation of LDLR mRNA expression compared with BBR” value with LDLR was “Reduced effect; also recorded: much lower than that of BBR”. Moreover, the dhBBR-to-BBR reversion rate result in series [5] (ileum homogenate) is reported as “more than 80%”.
